# Columns and labels:
# primary keratinocytes = assay: [3H]Glycerol uptake; assay type: cell-based, mouse; details: 24 hours
# Procedure: Confluent primary keratinocytes were incubated for 30, 60, 90, 120, 300 or 600 seconds with SFKM containing 20 mM HEPES (for additional pH buffering), 1 μCi/mL [^3H]glycerol and 0.1% DMSO (control) or 100 nM PMA. Reactions were terminated by washing three times with ice-cold phosphate-buffered saline lacking divalent cations. The cells were subsequently solubilized in 0.3 M NaOH and aliquots of this extract subjected to liquid scintillation counting. Counts obtained from duplicate samples at each time point were averaged and graphed, and a linear equation was determined for each condition. Correlation coefficients obtained were typically 0.99 or greater (mean correlation coefficient for control was 0.992±0.002 and for PMA, 0.994±0.001). Slopes obtained from multiple experiments were averaged and analyzed statistically for significant differences between conditions.
# The linearity of glycerol uptake determined above allowed measurement of uptake at a single time point to determine the effects of other treatments on this process. Thus, confluent keratinocytes were preincubated for 30 minutes with 0.1% DMSO (control) or 100 nM PMA prior to measuring [^3H]glycerol uptake as above but at 5 minutes only. Similarly, near-confluent primary keratinocytes were incubated for 24 hours with SFKM containing various calcium concentrations prior to measurement of radiolabeled glycerol uptake for 5 minutes.
# Near-confluent keratinocyte cultures were incubated for 24 hours in SFKM (25 μM calcium) or SFKM containing 125 μM calcium (125 μM Ca^2+-SFKM) and the glycerol uptake assay performed as previously described in Zheng & Bollag (2003). Briefly, cells were incubated with SFKM containing 20 mM HEPES (for additional pH buffering) and 1 μCi/mL [^3H] glycerol for 5 minutes, since it has previously been shown that this time point is in the linear range of [^3H]glycerol uptake (Zheng & Bollag (2003). Reactions were terminated by rapidly washing three times with ice-cold phosphate-buffered saline lacking divalent cations (PBS-). Cells were then solubilized in 0.3 M NaOH and [^3H]glycerol uptake quantified by liquid scintillation spectroscopy.
# involucrin = assay: Involucrin protein levels by western analysis; assay type: cell-based, mouse; details: 24 hours; PG liposomes in 25 uM Ca2+ medium, or 125 uM Ca2+ alone; normalized to actin
# Procedure: FIGS. 15A-B illustrate that glycerol, but not xylitol or sorbitol, inhibits DNA synthesis and enhances the inhibitory effect of an elevated extracellular Ca^2+ concentration. (A) Near-confluent keratinocytes were incubated for 24 hours with 0.02 or 0.1% glycerol and DNA synthesis measured as the incorporation of [^3H] thymidine incorporation into DNA. (B) Near-confluent keratinocytes were incubated for 24 hours with the indicated concentrations of glycerol (G, squares) or equivalent concentrations of xylitol (X, circles) in SFKM containing 25 μM (control; open symbols) or 125 μM Ca^2+ (Ca^2+; closed symbols). […] [^3H]Thymidine incorporation into DNA was then determined. […] Luciferase activity was then measured using a Dual Luciferase kit as directed by the manufacturer. […] The blots were quantified using the Kodak molecular imaging software. […]
# PG was also examined for its ability to stimulate a marker of keratinocyte differentiation. Keratinocytes were treated with or without PG liposomes in 25 uM Ca^2+ (control) or 125 uM Ca^2+-containing medium for 24 hours and cell lysates were analyzed for involucrin protein levels (normalized to actin as a loading control) (FIG. 15E).
compound,measurement,setting,value
[Ca+2] [calcium],glycerol uptake relative to control,primary keratinocytes; 500 μM calcium pretreatment,approximately equivalent to the control value
same,glycerol uptake relative to control,primary keratinocytes; 1 mM calcium pretreatment,slight but not significant inhibition
same,increase in glycerol uptake relative to the 25 μM calcium control,primary keratinocytes; pre-exposure to 125 μM calcium,56%
same,increase in glycerol uptake relative to the 25 μM calcium control,primary keratinocytes; pre-exposure to 250 μM calcium,41%
same,"involucrin protein levels, each agent alone",involucrin,not significant effect

# From patent US8808715B1, “Methods and compositions for modulating keratinocyte function” (Georgia Regents Research Institute, Inc, priority 2004, dated 2014)
